Measurements reported in patent US11447638B2, “Acetalanthraquinone derivatives useful for cellular staining” (BIOSTATUS LIMITED, priority 2016, dated 2022).

How the values were obtained:
[1] = Absorption and fluorescence spectra of compounds in PBS or HEPES; type: physicochemical; settings: for peak excitation wavelength: excitation wavelength used for fluorescence spectra of FIG. 1A/1B; for fluorescence emission, 540 nm (Ex in PBS): excited at 540 nm; for fluorescence emission, 540 nm (Ex in PBS) / fluorescence emission, λ1 nm (Ex in HEPES) / fluorescence emission, λ1 nm (Ex in PBS): 20 μM; for fluorescence emission, λ1 nm (Ex in HEPES) / fluorescence emission, λ1 nm (Ex in PBS): excited at absorption peak 1 (λ1)
Outline: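 Compounds (20 μM working solutions) in PBS or HEPES, read in quartz cuvette against buffer baseline, absorbance scanned 280–800 nm. Emission scanned 400–900 nm in 1 nm steps with excitation at each compound's first absorption peak or 540 nm, ten reads per point. DRAQ5 served as reference; spectra normalised to peak.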

U-2 OS cells = assay: Confocal laser scanning microscopy (CLSM) localisation analysis; type: cell-based, human; settings: 30 min incubation, Ex 637 nm, Em >665 nm; for subcellular localisation by CLSM: FIG. 4 and 5
Outline: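 Live U-2 OS cells imaged by confocal microscopy after 30 min incubation with probe compound, excitation 637 nm, emission >665 nm, at several z depths with solution background removed. Sections merged into maximum projections; per-cell nucleus/cytoplasm fluorescence ratio used as index of DNA binding.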

A549 cells = assay: Pulse exposure to probes, time-lapse, reimaged after 72 h; type: cell-based, human; settings: 20 uM for 15 mins, washout, T=72 h
Method: In this regard, A549 cells were seeded in a 24 well coverslip bottomed-plate, cultured overnight in McCoys media for 24 or 48 hours. The plates were placed onto an inverted automated microscope, with the capacity for acquiring an image sequence of different wells (therefore exposure to different agent labelling). An Axiovert 100 microscope (Carl Zeiss, Welwyn Garden City, UK) was fitted with an incubator for 37° C./5% CO2 maintenance (Solent Scientific, Portsmouth, UK), and an ORCA-ER CCD camera (Hamamatsu, Reading, UK). Illumination was controlled by a shutter in front of the transmission lamp, and an x, y positioning stage with separate z-focus (Prior Scientific, Cambridge, UK) controlled multi-field acquisition. Image capture was controlled using Metamorph software.
Cells were exposed to a constant dose (0-5 μM) or a pulsed dose of 0 or 20 μM agent for 15 minutes followed by washout with warmed full media.
All images were collected with a ×10 (PH1) apochromat objective lens providing a field size of 500 times 500 microns. In this case a phase contrast image was collected every 30 minutes for 72 hours. Single cell growth and expansion can be tracked over time. The cells were harvested and run through a flow cytometry (typically a FACS Calibur 635 nm excitation/661/16 emission).
A549 cells were loaded with 20 uM BST-101, BST-109 or BST-110 for 15 mins followed by washout. Cells were then time-lapsed and reimaged after T=72 h, as before, […]

SMILES	peak excitation wavelength [1] [nm]	fluorescence emission, 540 nm (Ex in PBS) [1] [nm]	fluorescence emission, λ1 nm (Ex in HEPES) [1] [nm]	fluorescence emission, λ1 nm (Ex in PBS) [1] [nm]	specific feature of localisation by CLSM (U-2 OS cells)	subcellular localisation by CLSM (U-2 OS cells)	cell division and signal retention / location after pulse exposure (A549 cells)
COC(CNC(=O)CCNc1ccc(NCCN(C)C)c2c1C(=O)c1ccccc1C2=O)OC [BST-109, N-(2,2-Dimethoxyethyl)-3-(4-(2-(dimethylamino)ethylamino)-9,10-dioxo-9,10-dihydroanthracen-1-ylamino)propanamide]	584	660	660	666	whole cell staining	strong nuclear uptake and perinuclear staining, with possible ER accumulation	dividing, and signal retained but now relocated in a non-nuclear compartment perinuclear
COC(CC(=O)NCCNc1ccc(NCCN(C)C)c2c1C(=O)c1ccccc1C2=O)OC [BST-110, N-(2-(4-(2-(dimethylamino)ethylamino)-9,10-dioxo-9,10-dihydroanthracen-1-ylamino)ethyl)-3,3-dimethoxypropanamide]	583	662	660	665.5	whole cell staining	strong nuclear uptake and perinuclear staining, with possible ER accumulation	dividing, and signal now relocated in a non-nuclear compartment perinuclear
